Laboratory results published in paper PMC8389922, “First-in-Class Cyclic Temporin L Analogue: Design, Synthesis, and Antimicrobial Assessment” (Journal of Medicinal Chemistry, 2021).
In brackets after ≈: the same amount, converted by molar mass. Bridge positions count the residues as written; N and C are the ends. Square brackets hold non-standard residues; d marks the D form. Peptide text beside a SMILES is read from it.

Columns and labels:
circular dichroism = conditions: water; pH ns; 25 °C; 50 uM
E. coli ATCC 25922 = assay type: cell-based, Escherichia coli
Experimental: (§1) The antimicrobial activity of peptides 9–26 was assessed against a range of reference bacterial strains such as S. aureus ATCC 25923, Staphylococcus epidermidis ATCC 12228, Bacillus megaterium Bm11, E. coli ATCC 25922, P. aeruginosa ATCC 27853, and A. baumannii ATCC 19606 by the broth microdilution assay to determine the minimal growth inhibitory concentration (MIC, Table 1).[59] First, we evaluated the effects produced by the lactam bridge between Lys and Glu residues placed at different positions along the peptide sequence of reference 9. […] When the i,i+7 cyclization strategy was applied (20–23), a dramatic decrease of bacterial inhibition activity was observed. Specifically, the peptides 20, 22, and 23 only affected the microbial growth of the Gram-positive B. megaterium Bm11, at 12.5 μM. […] Peptide 25, which differs from 9 by the presence of an olefin bridge rather than lactam one, dramatically lost the activity (MIC > 100 μM) vs both Gram-positive and Gram-negative strains.
(§2) The determination of MICs was conducted as previously reported.[61] Aliquots of 50 μL of bacterial culture appropriately diluted were added to each well of a 96-well plate to reach a final cell density of 1 × 10^6 CFU/mL and a final peptide concentration ranging from 100 to 0.78 μM (final volume 100 μL).

B. megaterium Bm11 = assay type: cell-based, Bacillus megaterium
Experimental: as §1, §2

A. baumannii ATCC 19606 = assay type: cell-based, Acinetobacter baumannii
Experimental: as §1, §2

[1] = test system: S. epidermidis ATCC 12228; assay type: cell-based, Staphylococcus epidermidis
Experimental: as §1, §2

P. aeruginosa ATCC 27853 = assay type: cell-based, Pseudomonas aeruginosa
Experimental: as §1, §2

S. aureus ATCC 25923 = assay type: cell-based, Staphylococcus aureus
Experimental: as §1, §2

| Structure (SMILES) | helicity (circular dichroism) [%] | MIC E. coli ATCC 25922 (E. coli ATCC 25922) [µM] | MIC B. megaterium Bm11 (B. megaterium Bm11) [µM] | MIC A. baumannii ATCC 19606 (A. baumannii ATCC 19606) [µM] | MIC S. epidermidis ATCC 12228 [1] [µM] | MIC P. aeruginosa ATCC 27853 (P. aeruginosa ATCC 27853) [µM] | MIC S. aureus ATCC 25923 (S. aureus ATCC 25923) [µM] |
| --- | --- | --- | --- | --- | --- | --- | --- |
| CC[C@H](C)[C@H](NC(=O)[C@H](CCCNC(=N)N)NC(=O)[C@@H]1CCCCn2cc(nn2)C[C@H](NC(=O)[C@H](Cc2ccccc2)NC(=O)[C@H](Cc2c[nH]c3ccccc23)NC(=O)[C@@H]2CCCN2C(=O)[C@@H](NC(=O)[C@@H](N)Cc2ccccc2)C(C)C)C(=O)N[C@@H](CCCCN)C(=O)N[C@@H](Cc2ccccc2)C(=O)N[C@H](CC(C)C)C(=O)N1)C(=O)N[C@@H](CC(C)C)C(N)=O | 6 |  |  |  |  |  |  |
| CC[C@H](C)[C@H](NC(=O)[C@H](CCCNC(=N)N)NC(=O)[C@@H]1CSSC[C@H](NC(=O)[C@H](Cc2ccccc2)NC(=O)[C@H](Cc2c[nH]c3ccccc23)NC(=O)[C@@H]2CCCN2C(=O)[C@@H](NC(=O)[C@@H](N)Cc2ccccc2)C(C)C)C(=O)N[C@@H](CCCCN)C(=O)N[C@@H](Cc2ccccc2)C(=O)N[C@H](CC(C)C)C(=O)N1)C(=O)N[C@@H](CC(C)C)C(N)=O [compound 26] (H-FVPWFCKF[dL]CRIL-NH2; disulfide 6-10) | 8 | 25 (≈ 41.7 µg/mL) | 1.56 (≈ 2.6 µg/mL) | 25 (≈ 41.7 µg/mL) | 6.25 (≈ 10.4 µg/mL) | >100 | 100 (≈ 167 µg/mL) |
